Assay results from PubChem BioAssay AID2060607 (Molecular Pharmacology Branch, DTP, NCI, 2025).

Tested on: 876862-298-R-J1-PDC complex spheroids, viability % test/control
Experiment: Anticancer human tumor 876862-298-R-J1-PDC patient-derived endometrial carcinoma cell line growth inhibition [CLK]
Conditions: for IC50: curve of first compound; for viability, T/C: stronger effect = lower value
In short: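 Patient-derived tumor cells grown as complex spheroids with HUVEC endothelial cells and mesenchymal stem cells, treated with drug combinations. Concentrations descend in half-log steps from near clinical Cmax, or from 10 microM if Cmax unknown.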

[1] = second compound 0.0316 µM, first compound 0.0316 µM
[2] = second compound 0.0316 µM, first compound 0.1 µM
[3] = second compound 0.0316 µM, first compound 0.316 µM
[4] = second compound 0.0316 µM, first compound 1 µM
[5] = second compound 0.0316 µM, first compound 3.16 µM
[6] = second compound 0.0316 µM, first compound 10 µM
[7] = second compound 0.1 µM, first compound 0.0316 µM
[8] = second compound 0.1 µM, first compound 0.1 µM
[9] = second compound 0.1 µM, first compound 0.316 µM
[10] = second compound 0.1 µM, first compound 1 µM
[11] = second compound 0.1 µM, first compound 3.16 µM
[12] = second compound 0.1 µM, first compound 10 µM
[13] = second compound 0.316 µM, first compound 0.0316 µM
[14] = second compound 0.316 µM, first compound 0.1 µM
[15] = second compound 0.316 µM, first compound 0.316 µM
[16] = second compound 0.316 µM, first compound 1 µM
[17] = second compound 0.316 µM, first compound 3.16 µM
[18] = second compound 0.316 µM, first compound 10 µM
[19] = second compound 1 µM, first compound 0.0316 µM
[20] = second compound 1 µM, first compound 0.1 µM
[21] = second compound 1 µM, first compound 0.316 µM
[22] = second compound 1 µM, first compound 1 µM
[23] = second compound 1 µM, first compound 3.16 µM
[24] = second compound 1 µM, first compound 10 µM
[25] = second compound 3.16 µM, first compound 0.0316 µM
[26] = second compound 3.16 µM, first compound 0.1 µM
[27] = second compound 3.16 µM, first compound 0.316 µM
[28] = second compound 3.16 µM, first compound 1 µM
[29] = second compound 3.16 µM, first compound 3.16 µM
[30] = second compound 3.16 µM, first compound 10 µM
[31] = second compound 10 µM, first compound 0.0316 µM
[32] = second compound 10 µM, first compound 0.1 µM
[33] = second compound 10 µM, first compound 0.316 µM
[34] = second compound 10 µM, first compound 1 µM
[35] = second compound 10 µM, first compound 3.16 µM
[36] = second compound 10 µM, first compound 10 µM
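Further: spheroids exposed to drugs for 7 days before readout.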
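Wherever viability, T/C is given: 100% = DMSO vehicle control wells.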

CC(=O)O[C@H]1C(=O)[C@@]2(C)[C@H]([C@H](OC(=O)c3ccccc3)[C@]3(O)C[C@H](OC(=O)[C@H](O)[C@@H](NC(=O)c4ccccc4)c4ccccc4)C(C)=C1C3(C)C)[C@]1(OC(C)=O)CO[C@@H]1C[C@@H]2O + CNC(=O)c1ccc(Nc2nc(OC3CCCC3)c3c(-c4ccc5nc(C)oc5c4)c[nH]c3n2)c(OC)c1
IC50 (second compound 0.0316 µM): < 31.6 nM | IC50 (second compound 0.1 µM): < 31.6 nM | IC50 (second compound 0.316 µM): < 31.6 nM | IC50 (second compound 1 µM): < 31.6 nM | IC50 (second compound 3.16 µM): < 31.6 nM | IC50 (second compound 10 µM): < 31.6 nM | viability, T/C [1]: 32.5% | viability, T/C [2]: 37.6% | viability, T/C [3]: 37.8% | viability, T/C [4]: 36.5% | viability, T/C [5]: 37.3% | viability, T/C [6]: 43.6% | viability, T/C [7]: 51.2% | viability, T/C [8]: 45.7% | viability, T/C [9]: 45.6% | viability, T/C [10]: 42.8% | viability, T/C [11]: 49.8% | viability, T/C [12]: 50.9% | viability, T/C [13]: 41.5% | viability, T/C [14]: 45.6% | viability, T/C [15]: 43.8% | viability, T/C [16]: 41.4% | viability, T/C [17]: 47.8% | viability, T/C [18]: 45.9% | viability, T/C [19]: 32.2% | viability, T/C [20]: 31% | viability, T/C [21]: 33.2% | viability, T/C [22]: 35.4% | viability, T/C [23]: 36% | viability, T/C [24]: 40.8% | viability, T/C [25]: 23.1% | viability, T/C [26]: 22.9% | viability, T/C [27]: 24.7% | viability, T/C [28]: 26.6% | viability, T/C [29]: 30.4% | viability, T/C [30]: 33.6% | viability, T/C [31]: 21.6% | viability, T/C [32]: 21% | viability, T/C [33]: 23.4% | viability, T/C [34]: 26.1% | viability, T/C [35]: 25.3% | viability, T/C [36]: 30%

CCc1c2c(nc3ccc(O)cc13)-c1cc3c(c(=O)n1C2)COC(=O)[C@]3(O)CC + CNC(=O)c1ccc(Nc2nc(OC3CCCC3)c3c(-c4ccc5nc(C)oc5c4)c[nH]c3n2)c(OC)c1
IC50 (second compound 0.0316 µM): < 3.16 nM | IC50 (second compound 0.1 µM): < 3.16 nM | IC50 (second compound 0.316 µM): < 3.16 nM | IC50 (second compound 1 µM): < 3.16 nM | IC50 (second compound 3.16 µM): < 3.16 nM | IC50 (second compound 10 µM): < 3.16 nM | viability, T/C (second compound 0.0316 µM, first compound 0.00316 µM): 24% | viability, T/C (second compound 0.0316 µM, first compound 0.01 µM): 9.43% | viability, T/C [1]: 8.16% | viability, T/C [2]: 5.8% | viability, T/C [3]: 5.07% | viability, T/C [4]: 3.65% | viability, T/C (second compound 0.1 µM, first compound 0.00316 µM): 16.5% | viability, T/C (second compound 0.1 µM, first compound 0.01 µM): 7.94% | viability, T/C [7]: 7.35% | viability, T/C [8]: 4.4% | viability, T/C [9]: 4.15% | viability, T/C [10]: 3.49% | viability, T/C (second compound 0.316 µM, first compound 0.00316 µM): 14.8% | viability, T/C (second compound 0.316 µM, first compound 0.01 µM): 6.28% | viability, T/C [13]: 5.77% | viability, T/C [14]: 4.17% | viability, T/C [15]: 4.42% | viability, T/C [16]: 3.57% | viability, T/C (second compound 1 µM, first compound 0.00316 µM): 9.55% | viability, T/C (second compound 1 µM, first compound 0.01 µM): 5.23% | viability, T/C [19]: 4.77% | viability, T/C [20]: 4.25% | viability, T/C [21]: 3.64% | viability, T/C [22]: 2.78% | viability, T/C (second compound 3.16 µM, first compound 0.00316 µM): 7.99% | viability, T/C (second compound 3.16 µM, first compound 0.01 µM): 5.52% | viability, T/C [25]: 4.06% | viability, T/C [26]: 4.3% | viability, T/C [27]: 3.4% | viability, T/C [28]: 2.05% | viability, T/C (second compound 10 µM, first compound 0.00316 µM): 6.88% | viability, T/C (second compound 10 µM, first compound 0.01 µM): 4.97% | viability, T/C [31]: 5.13% | viability, T/C [32]: 4.85% | viability, T/C [33]: 3.25% | viability, T/C [34]: 1.96%

COc1ccc([C@@H](O)c2cc(-c3ncnc4cc(N5CCOCC5)ccc34)c(F)cc2Cl)nn1 + CNC(=O)c1ccc(Nc2nc(OC3CCCC3)c3c(-c4ccc5nc(C)oc5c4)c[nH]c3n2)c(OC)c1
IC50 (second compound 0.0316 µM): 3010 nM | IC50 (second compound 0.1 µM): 81.2 nM | IC50 (second compound 0.316 µM): < 31.6 nM | IC50 (second compound 1 µM): < 31.6 nM | IC50 (second compound 3.16 µM): < 31.6 nM | IC50 (second compound 10 µM): < 31.6 nM | viability, T/C [1]: 72% | viability, T/C [2]: 84.4% | viability, T/C [3]: 69.5% | viability, T/C [4]: 66.1% | viability, T/C [5]: 49.4% | viability, T/C [6]: 30.5% | viability, T/C [7]: 50.6% | viability, T/C [8]: 49.3% | viability, T/C [9]: 48.7% | viability, T/C [10]: 38.8% | viability, T/C [11]: 34% | viability, T/C [12]: 26.8% | viability, T/C [13]: 47% | viability, T/C [14]: 39.7% | viability, T/C [15]: 47.7% | viability, T/C [16]: 33.2% | viability, T/C [17]: 27.1% | viability, T/C [18]: 21.6% | viability, T/C [19]: 31.9% | viability, T/C [20]: 28.8% | viability, T/C [21]: 30.4% | viability, T/C [22]: 26.8% | viability, T/C [23]: 21.1% | viability, T/C [24]: 15.5% | viability, T/C [25]: 25% | viability, T/C [26]: 21.2% | viability, T/C [27]: 18.5% | viability, T/C [28]: 20.3% | viability, T/C [29]: 17.2% | viability, T/C [30]: 11.9% | viability, T/C [31]: 23.2% | viability, T/C [32]: 19.2% | viability, T/C [33]: 17.9% | viability, T/C [34]: 16.3% | viability, T/C [35]: 17% | viability, T/C [36]: 10.2%

COc1cccc2c1C(=O)c1c(O)c3c(c(O)c1C2=O)CC(O)(C(=O)CO)CC3OC1CC(N)C(O)C(C)O1 (stereo not given) + CNC(=O)c1ccc(Nc2nc(OC3CCCC3)c3c(-c4ccc5nc(C)oc5c4)c[nH]c3n2)c(OC)c1
IC50 (second compound 0.0316 µM): < 31.6 nM | IC50 (second compound 0.1 µM): < 31.6 nM | IC50 (second compound 0.316 µM): < 31.6 nM | IC50 (second compound 1 µM): < 31.6 nM | IC50 (second compound 3.16 µM): < 31.6 nM | IC50 (second compound 10 µM): < 31.6 nM | viability, T/C [1]: 27.4% | viability, T/C [2]: 11.2% | viability, T/C [3]: 6.58% | viability, T/C [4]: 5.25% | viability, T/C [5]: 0.7% | viability, T/C [6]: 4.06% | viability, T/C [7]: 22.3% | viability, T/C [8]: 10.5% | viability, T/C [9]: 6.67% | viability, T/C [10]: 4.08% | viability, T/C [11]: 0.67% | viability, T/C [12]: 3.82% | viability, T/C [13]: 21.7% | viability, T/C [14]: 7.88% | viability, T/C [15]: 5.6% | viability, T/C [16]: 2.96% | viability, T/C [17]: 0.81% | viability, T/C [18]: 4.75% | viability, T/C [19]: 15.3% | viability, T/C [20]: 5.96% | viability, T/C [21]: 4.62% | viability, T/C [22]: 2.24% | viability, T/C [23]: 1.51% | viability, T/C [24]: 5.96% | viability, T/C [25]: 13% | viability, T/C [26]: 6.62% | viability, T/C [27]: 3.35% | viability, T/C [28]: 1.57% | viability, T/C [29]: 1.6% | viability, T/C [30]: 6.55% | viability, T/C [31]: 12.1% | viability, T/C [32]: 5.47% | viability, T/C [33]: 3.35% | viability, T/C [34]: 1.56% | viability, T/C [35]: 2.15% | viability, T/C [36]: 7.11%

O=c1[nH]cc(F)c(=O)[nH]1 + CNC(=O)c1ccc(Nc2nc(OC3CCCC3)c3c(-c4ccc5nc(C)oc5c4)c[nH]c3n2)c(OC)c1
IC50 (second compound 0.0316 µM): > 10000 nM | IC50 (second compound 0.1 µM): < 31.6 nM | IC50 (second compound 0.316 µM): < 31.6 nM | IC50 (second compound 1 µM): < 31.6 nM | IC50 (second compound 3.16 µM): < 31.6 nM | IC50 (second compound 10 µM): < 31.6 nM | viability, T/C [1]: 68.7% | viability, T/C [2]: 84.1% | viability, T/C [3]: 81.4% | viability, T/C [4]: 94.6% | viability, T/C [5]: 57.9% | viability, T/C [6]: 49.6% | viability, T/C [7]: 46.7% | viability, T/C [8]: 49.5% | viability, T/C [9]: 49.2% | viability, T/C [10]: 45% | viability, T/C [11]: 45.3% | viability, T/C [12]: 41.6% | viability, T/C [13]: 49.7% | viability, T/C [14]: 42% | viability, T/C [15]: 41.9% | viability, T/C [16]: 40.5% | viability, T/C [17]: 40.1% | viability, T/C [18]: 38.5% | viability, T/C [19]: 31.5% | viability, T/C [20]: 32.2% | viability, T/C [21]: 32.5% | viability, T/C [22]: 31.1% | viability, T/C [23]: 24% | viability, T/C [24]: 24.7% | viability, T/C [25]: 25% | viability, T/C [26]: 25.9% | viability, T/C [27]: 22.9% | viability, T/C [28]: 19.9% | viability, T/C [29]: 18% | viability, T/C [30]: 14.2% | viability, T/C [31]: 20.3% | viability, T/C [32]: 21.2% | viability, T/C [33]: 20.1% | viability, T/C [34]: 21.6% | viability, T/C [35]: 17.6% | viability, T/C [36]: 13.6%
